# According to patent US11891379B2, “Deuterated Defactinib compound and use thereof” (HINOVA PHARMACEUTICALS INC., priority 2018, dated 2024):
# Assays:
# [1] = Metabolic stability in mouse liver microsomes; type: in vitro ADME; settings: for half-life at 2 μM: mouse liver microsomes 0.5 mg/mL, test compound 2 μM, sampling 0-60 min, read-out: Half life t1/2 (min) in mouse liver microsomes; for metabolic stability in the liver microsomes compared with non-deuterated control defactinib: mouse liver microsomes, result in words
# Procedure: (§1) Step 1. The mother solution was prepared according to the component ratio in Table 1 below:
# (§2) Step 2: Two experiments were carried out as follows:
# (§3) A) Adding reduced coenzyme II (NADPH): 20 mg/mL liver microsomes (10 μL) and 10 mM NADPH (40 μL) were added into the incubation experiment. The final concentrations of liver microsomes and NADPH were 0.5 mg/mL and 1 mM, respectively.
# (§4) B) Without NADPH: 20 mg/mL liver microsomes (10 μL) and high pure water (40 μL) were added into the incubation experiment. The final concentration of liver microsomes was 0.5 mg/mL.
# (§5) Step 3: The reaction began after adding 200 μM positive control (4 μL) or test compound. The positive control was verapamil in this experiment. The final concentration of the test compound was 2 μM.
# (§6) Step 4: At the time points 0 min, 15 min, 30 min, 45 min, and 60 min, 50 μL solution was sampled from each reaction solution. Acetonitrile (4× volumes of reaction solution) and IS (100 nM alprazolam, 200 nM labetalol, 200 nM caffeine, and 2 μM ketoprofen) were added to the reaction solution. The sample was centrifuged at 3220 g gravity for 40 min. 100 μL high pure water was added into 100 μL supernatant and analyzed by LC-MS/MS.
# (§7) Step 5: Data analysis: the peak area was determined from the extracted ion chromatogram. The slope value k was determined by linear regression of the natural logarithm obtained from the curve between the residual percentage of parent drug and the incubation time.
# (§8) In vitro half-life (In vitro t1/2) was determined by the slope value: in vitro t1/2=−([…]/k In vitro intrinsic clearance (in vitro CLint, in […]) was converted from in vitro half-life t1/2 (min) using the following equation (mean value of repeated determinations): […]
# (§9) Scale up intrinsic clearance (Scale up CLint, in mL/min/kg) was converted from in vitro half-life t1/2 (min) using the following equation (mean value of repeated determinations): […]
# [2] = Metabolic stability in human liver microsomes; type: in vitro ADME; settings: for half-life at 2 μM: human liver microsomes 0.5 mg/mL, test compound 2 μM, sampling 0-60 min, read-out: Half life t1/2 (min) in human liver microsomes; for metabolic stability in the liver microsomes compared with non-deuterated control defactinib: human liver microsomes, result in words
# Procedure: as §1, §2, §3, §4, §5, §6, §7, §8, §9
# [3] = Pharmacokinetic experiment in rats (PO, 10 mpk); type: in vivo; settings: Sprague-Dawley (SD), rat, 10 mg/kg, male SD rats, PO by gavage, plasma; for AUC: read-out: Exposure dose AUC; for half-life: read-out: Half life t1/2 (converted); for Tmax: read-out: Peak hours tmax; for Cmax: read-out: Peak plasma concentration Cmax(ng/mL); for MRT inf: read-out: Retention time MRTinf
# Procedure: Appropriate amount of drug (equivalent to 10 mg of the original drug) was accurately weighed, to which was first added 0.25 ml DMA to dissolve drug, and 0.5% CMC-Na was slowly added to 5 ml, then mixed well with ultrasonic and vortex. 0.2 ml final solution prepared was taken out and stored at −20° C. for concentration determination. Three healthy adult male SD rats (180-250 g) received drugs at 5 ml/kg by gavage after fasting overnight (free drinking water); 0.1 ml blood was collected from retroorbital venous plexus before administration and 0.5, 1, 2, 4, 6, 8, 12 and 24 h after administration, and plasma was separated by centrifugation at 4° C. for 5 min and stored at −20° C. for use. Then, LC/MS/MS method was used to determine the concentration of compounds in plasma.
# [4] = Metabolic stability in rat liver microsomes; type: in vitro ADME; settings: for half-life at 2 μM: rat liver microsomes 0.5 mg/mL, test compound 2 μM, sampling 0-60 min, read-out: Half life t1/2 (min) in rat liver microsomes; for metabolic stability in the liver microsomes compared with non-deuterated control defactinib: rat liver microsomes, result in words
# Procedure: as §1, §2, §3, §4, §5, §6, §7, §8, §9
half-life at 2 μM [1] [min],metabolic stability in the liver microsomes compared with non-deuterated control defactinib [1],half-life at 2 μM [2] [min],metabolic stability in the liver microsomes compared with non-deuterated control defactinib [2],AUC [3] [ng·h/mL],half-life [3] [min],Tmax [3] [min],Cmax [3] [ng/mL],MRT inf [3] [h],half-life at 2 μM [4] [min],metabolic stability in the liver microsomes compared with non-deuterated control defactinib [4],SMILES
87,significantly improved,894,significantly improved,2840,104,40.2,1220,2.03,151,significantly improved,"[2H]C([2H])([2H])NC(=O)c1ccc(Nc2ncc(C(F)(F)F)c(NCc3nccnc3N(C)S(C)(=O)=O)n2)cc1 [Compound 1, N-(trideuteromethyl)-4-((4-(((3-(N-methylmethylsulfonyl)pyrazin-2-yl)methyl)amino)-5-(trifluoromethyl)pyrimidin-2-yl)amino)benzamide]"
70,,100,slightly worse,,,,,,47,slightly worse,"[2H]C([2H])([2H])N(c1nccnc1CNc1nc(Nc2ccc(C(=O)NC)cc2)ncc1C(F)(F)F)S(C)(=O)=O [Compound 2, N-methyl-4-((4-(((3-(N-deuteromethylmethanesulfonamido)pyrazin-2-yl)methyl)amino)-5-(trifluoromethyl)pyrimidin-2-yl)amino)benzamide]"
406,significantly improved,781,significantly improved,3740,148,100,971,3.35,370,significantly improved,"[2H]C([2H])([2H])NC(=O)c1ccc(Nc2ncc(C(F)(F)F)c(NCc3nccnc3N(C([2H])([2H])[2H])S(C)(=O)=O)n2)cc1 [Compound 3, N-(trideuteromethyl)-4-((4-(((3-(N-deuteromethylmethanesulfonamido)pyrazin-2-yl)methyl)amino)-5-(trifluoromethyl)pyrimidin-2-yl)amino)benzamide]"
63,,260,,1650,87.6,40.2,643,2.4,94,,"CNC(=O)c1ccc(Nc2ncc(C(F)(F)F)c(NCc3nccnc3N(C)S(C)(=O)=O)n2)cc1 [Defactinib, N-methyl-4-((4-(((3-(N-methylmethylsulfonyl)pyrazin-2-yl)methyl)amino)-5-(trifluoromethyl)pyrimidin-2-yl)amino)benzamide]"
